Reference: patent publication US10131652B2, “Pyrimidinyloxy benzene derivatives as herbicides” (E. I. DU PONT DE NEMOURS AND COMPANY, priority 2014, dated 2018)

Columns and labels:
Assay in all cases: Test F pre-/postemergence plant response
Format in all cases: in vivo
Details in all cases: scale 0 to 100
[1] = system: arrowleaf sida (Sida rhombifolia)
Method in brief: (§1)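 Seeds were sown in silt loam soil and sprayed preemergence; separately, plants at the 1- to 4-leaf stage (2 to 18 cm) received postemergence sprays. Test chemicals were in a non-phytotoxic solvent mixture with surfactant. After 14 to 21 days in a greenhouse, injury was visually rated 0 (no effect) to 100 (complete control) against untreated controls.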

[2] = system: barnyardgrass (Echinochloa crus-galli)
Method in brief: as §1

[3] = system: corn (Zea mays)
Method in brief: as §1

[4] = system: dayflower (Virginia (VA) dayflower, Commelina virginica)
Method in brief: as §1

[5] = system: fall panicum (Panicum dichotomiflorum)
Method in brief: as §1

[6] = system: giant foxtail (Setaria faberii)
Method in brief: as §1

[7] = system: green foxtail (Setaria viridis)
Method in brief: as §1

[8] = system: johnsongrass (Sorghum halepense)
Method in brief: as §1

[9] = system: large (Lg) crabgrass (Digitaria sanguinalis)
Method in brief: as §1

[10] = system: morningglory (Ipomoea coccinea)
Method in brief: as §1

[11] = system: palmer pigweed (Amaranthus palmeri)
Method in brief: as §1

[12] = system: ragweed (common ragweed, Ambrosia elatior)
Method in brief: as §1

[13] = system: sandbur (southern sandbur, Cenchrus echinatus)
Method in brief: as §1

[14] = system: soybean (Glycine max)
Method in brief: as §1

[15] = system: surinam grass (Brachiaria decumbens)
Method in brief: as §1

[16] = system: waterhemp (common waterhemp, Amaranthus rudis)
Method in brief: as §1

Cc1cc(-c2ccccc2Oc2ncc(Cl)cn2)on1 [Compound 58]
10: Plant response rating, Dayflower, VA ([4]; 31 g ai/ha Postemergence) | Plant response rating, Dayflower, VA ([4]; 125 g ai/ha Postemergence) | Plant response rating, Panicum, Fall ([5]; 62 g ai/ha Postemergence) | Plant response rating, Morningglory ([10]; 31 g ai/ha Preemergence) | Plant response rating, Morningglory ([10]; 125 g ai/ha Preemergence) | Plant response rating, Morningglory ([10]; Preemergence) | Plant response rating, Sandbur ([13]; 125 g ai/ha Postemergence) | Plant response rating, Soybean ([14]; 16 g ai/ha Preemergence)
90: Plant response rating, Arrowleaf Sida ([1]; 125 g ai/ha Postemergence) | Plant response rating, Panicum, Fall ([5]; Preemergence) | Plant response rating, Soybean ([14]; 62 g ai/ha Postemergence) | Plant response rating, Waterhemp ([16]; 125 g ai/ha Postemergence) | Plant response rating, Waterhemp ([16]; Preemergence)
25: Plant response rating, Foxtail, Green ([7]; 125 g ai/ha Preemergence) | Plant response rating, Ragweed ([12]; Preemergence)
98: Plant response rating, Arrowleaf Sida ([1]; 125 g ai/ha Preemergence)
15: Plant response rating, Barnyardgrass ([2]; 125 g ai/ha Preemergence) | Plant response rating, Panicum, Fall ([5]; 8 g ai/ha Postemergence) | Plant response rating, Panicum, Fall ([5]; 125 g ai/ha Postemergence)
100: Plant response rating, Panicum, Fall ([5]; 125 g ai/ha Preemergence) | Plant response rating, Waterhemp ([16]; 125 g ai/ha Preemergence)
65: Plant response rating, Panicum, Fall ([5]; 31 g ai/ha Preemergence) | Plant response rating, Crabgrass, Large ([9]; 62 g ai/ha Preemergence) | Plant response rating, Waterhemp ([16]; 8 g ai/ha Postemergence) | Plant response rating, Waterhemp ([16]; 31 g ai/ha Postemergence)
20: Plant response rating, Arrowleaf Sida ([1]; 8 g ai/ha Preemergence) | Plant response rating, Dayflower, VA ([4]; 62 g ai/ha Postemergence) | Plant response rating, Johnsongrass ([8]; 125 g ai/ha Preemergence) | Plant response rating, Crabgrass, Large ([9]; 16 g ai/ha Preemergence) | Plant response rating, Soybean ([14]; 31 g ai/ha Preemergence) | Plant response rating, Waterhemp ([16]; 8 g ai/ha Preemergence)
35: Plant response rating, Arrowleaf Sida ([1]; 31 g ai/ha Preemergence) | Plant response rating, Panicum, Fall ([5]; 16 g ai/ha Preemergence) | Plant response rating, Pigweed, Palmer ([11]; 125 g ai/ha Preemergence) | Plant response rating, Pigweed, Palmer ([11]; Preemergence) | Plant response rating, Soybean ([14]; Preemergence)
50: Plant response rating, Arrowleaf Sida ([1]; 8 g ai/ha Postemergence) | Plant response rating, Crabgrass, Large ([9]; 31 g ai/ha Preemergence) | Plant response rating, Pigweed, Palmer ([11]; 8 g ai/ha Postemergence) | Plant response rating, Pigweed, Palmer ([11]; 16 g ai/ha Postemergence) | Plant response rating, Pigweed, Palmer ([11]; 31 g ai/ha Postemergence) | Plant response rating, Soybean ([14]; 8 g ai/ha Postemergence) | Plant response rating, Soybean ([14]; 16 g ai/ha Postemergence)
70: Plant response rating, Arrowleaf Sida ([1]; 16 g ai/ha Postemergence) | Plant response rating, Pigweed, Palmer ([11]; 62 g ai/ha Postemergence) | Plant response rating, Soybean ([14]; 31 g ai/ha Postemergence)
0: Plant response rating, Arrowleaf Sida ([1]; 16 g ai/ha Preemergence) | Plant response rating, Barnyardgrass ([2]; 8 g ai/ha Postemergence) | Plant response rating, Barnyardgrass ([2]; 8 g ai/ha Preemergence) | Plant response rating, Barnyardgrass ([2]; 16 g ai/ha Postemergence) | Plant response rating, Barnyardgrass ([2]; 16 g ai/ha Preemergence) | Plant response rating, Barnyardgrass ([2]; 31 g ai/ha Postemergence) | Plant response rating, Barnyardgrass ([2]; 31 g ai/ha Preemergence) | Plant response rating, Barnyardgrass ([2]; 62 g ai/ha Postemergence) | Plant response rating, Barnyardgrass ([2]; 62 g ai/ha Preemergence) | Plant response rating, Corn ([3]; 8 g ai/ha Postemergence) | Plant response rating, Corn ([3]; 8 g ai/ha Preemergence) | Plant response rating, Corn ([3]; 16 g ai/ha Postemergence) | Plant response rating, Corn ([3]; 16 g ai/ha Preemergence) | Plant response rating, Corn ([3]; 31 g ai/ha Postemergence) | Plant response rating, Corn ([3]; 31 g ai/ha Preemergence) | Plant response rating, Corn ([3]; 62 g ai/ha Preemergence) | Plant response rating, Corn ([3]; 125 g ai/ha Preemergence) | Plant response rating, Dayflower, VA ([4]; 8 g ai/ha Preemergence) | Plant response rating, Dayflower, VA ([4]; 16 g ai/ha Preemergence) | Plant response rating, Dayflower, VA ([4]; 31 g ai/ha Preemergence) | Plant response rating, Panicum, Fall ([5]; 8 g ai/ha Preemergence) | Plant response rating, Panicum, Fall ([5]; 16 g ai/ha Postemergence) | Plant response rating, Panicum, Fall ([5]; 31 g ai/ha Postemergence) | Plant response rating, Foxtail, Giant ([6]; 8 g ai/ha Preemergence) | Plant response rating, Foxtail, Giant ([6]; 16 g ai/ha Preemergence) | Plant response rating, Foxtail, Giant ([6]; 31 g ai/ha Preemergence) | Plant response rating, Foxtail, Giant ([6]; 62 g ai/ha Preemergence) | Plant response rating, Foxtail, Green ([7]; 8 g ai/ha Preemergence) | Plant response rating, Foxtail, Green ([7]; 16 g ai/ha Preemergence) | Plant response rating, Foxtail, Green ([7]; 31 g ai/ha Preemergence) | Plant response rating, Foxtail, Green ([7]; Preemergence) | Plant response rating, Johnsongrass ([8]; 8 g ai/ha Preemergence) | Plant response rating, Johnsongrass ([8]; 16 g ai/ha Preemergence) | Plant response rating, Johnsongrass ([8]; 31 g ai/ha Preemergence) | Plant response rating, Johnsongrass ([8]; Preemergence) | Plant response rating, Crabgrass, Large ([9]; 8 g ai/ha Preemergence) | Plant response rating, Morningglory ([10]; 8 g ai/ha Preemergence) | Plant response rating, Morningglory ([10]; 16 g ai/ha Preemergence) | Plant response rating, Pigweed, Palmer ([11]; 8 g ai/ha Preemergence) | Plant response rating, Pigweed, Palmer ([11]; 16 g ai/ha Preemergence) | Plant response rating, Pigweed, Palmer ([11]; 31 g ai/ha Preemergence) | Plant response rating, Ragweed ([12]; 8 g ai/ha Preemergence) | Plant response rating, Ragweed ([12]; 16 g ai/ha Preemergence) | Plant response rating, Ragweed ([12]; 31 g ai/ha Preemergence) | Plant response rating, Sandbur ([13]; 8 g ai/ha Postemergence) | Plant response rating, Sandbur ([13]; 8 g ai/ha Preemergence) | Plant response rating, Sandbur ([13]; 16 g ai/ha Postemergence) | Plant response rating, Sandbur ([13]; 16 g ai/ha Preemergence) | Plant response rating, Sandbur ([13]; 31 g ai/ha Postemergence) | Plant response rating, Sandbur ([13]; 31 g ai/ha Preemergence) | Plant response rating, Sandbur ([13]; 62 g ai/ha Postemergence) | Plant response rating, Sandbur ([13]; 125 g ai/ha Preemergence) | Plant response rating, Sandbur ([13]; Preemergence) | Plant response rating, Soybean ([14]; 8 g ai/ha Preemergence) | Plant response rating, Surinam Grass ([15]; 8 g ai/ha Preemergence) | Plant response rating, Surinam Grass ([15]; 16 g ai/ha Preemergence) | Plant response rating, Surinam Grass ([15]; 31 g ai/ha Preemergence) | Plant response rating, Surinam Grass ([15]; 125 g ai/ha Preemergence) | Plant response rating, Surinam Grass ([15]; Preemergence)
60: Plant response rating, Arrowleaf Sida ([1]; 31 g ai/ha Postemergence) | Plant response rating, Pigweed, Palmer ([11]; 125 g ai/ha Postemergence) | Plant response rating, Waterhemp ([16]; 16 g ai/ha Postemergence)
95: Plant response rating, Soybean ([14]; 125 g ai/ha Postemergence)
80: Plant response rating, Dayflower, VA ([4]; 125 g ai/ha Preemergence) | Plant response rating, Crabgrass, Large ([9]; 125 g ai/ha Preemergence) | Plant response rating, Waterhemp ([16]; 62 g ai/ha Postemergence)
5: Plant response rating, Barnyardgrass ([2]; 125 g ai/ha Postemergence) | Plant response rating, Corn ([3]; 62 g ai/ha Postemergence) | Plant response rating, Corn ([3]; 125 g ai/ha Postemergence) | Plant response rating, Dayflower, VA ([4]; 8 g ai/ha Postemergence) | Plant response rating, Dayflower, VA ([4]; 16 g ai/ha Postemergence)
75: Plant response rating, Arrowleaf Sida ([1]; 62 g ai/ha Postemergence) | Plant response rating, Arrowleaf Sida ([1]; 62 g ai/ha Preemergence) | Plant response rating, Ragweed ([12]; 125 g ai/ha Preemergence) | Plant response rating, Soybean ([14]; 125 g ai/ha Preemergence) | Plant response rating, Waterhemp ([16]; 16 g ai/ha Preemergence) | Plant response rating, Waterhemp ([16]; 31 g ai/ha Preemergence)
40: Plant response rating, Foxtail, Giant ([6]; 125 g ai/ha Preemergence)
